These are literature values, as cited in patent US20260374773A1, “MULTI-CYCLIC IRAK AND FLT3 INHIBITING COMPOUNDS AND USES THEREOF” (CHILDREN'S HOSPITAL MEDICAL CENTER, priority 2022, published 2026).

Structures are written as SMILES.

The test system of one data set is Menin-KMT2A (MLL). The following applies: pre-clinical studies; cited from earlier work.
For another data set, the system named is E-selectin. The following applies: with chemotherapy; AML mouse models; cited from earlier work.
In data set [1] the test system is subjects with myelodysplastic syndrome. The following applies: after receiving azacitidine; cited from earlier work.
For a further data set, the system named is AML cell lines. The following applies: combined with a concentration of an exemplary IRAK inhibitor; cited from earlier work.

`CCN(C(=O)c1cc(F)ccc1Oc1cncnc1N1CC2(CCN(C[C@H]3CC[C@H](NS(=O)(=O)CC)CC3)CC2)C1)C(C)C` [SNDX-5613]: in the data set on Menin-KMT2A (MLL), the pharmacokinetic properties result is given as “excellent pharmacokinetic properties” and the toxicity profile result is “low toxicity profiles”.

`CC[C@H]1C[C@@H](C(=O)NCCNC(=O)CCOCCOCCOCCOCCOCCOCCOCCOCCOCCOCCOCCOC)C[C@@H](O[C@@H]2O[C@H](CO)[C@H](O)[C@H](O[C@@H](CC3CCCCC3)C(=O)O)[C@H]2NC(C)=O)[C@@H]1O[C@@H]1O[C@@H](C)[C@@H](O)[C@@H](O)[C@@H]1O` [Uproleselan]: the “duration of mouse survival over chemotherapy alone” value in the data set on E-selectin is given as “doubling the duration of mouse survival over chemotherapy alone”. In the case of `Nc1ncn([C@@H]2O[C@H](CO)[C@@H](O)[C@H]2O)c(=O)n1` [azacitidine], the “patients who required blood transfusions and no longer needed them” value in data set [1] is on record as “about two-thirds”. Take `CC1(C)CCC(CN2CCN(c3ccc(C(=O)NS(=O)(=O)c4ccc(NCC5CCOCC5)c([N+](=O)[O-])c4)c(Oc4cnc5[nH]ccc5c4)c3)CC2)=C(c2ccc(Cl)cc2)C1` [venetoclax]: in the data set on AML cell lines, the “increase of potency of venetoclax” value is recorded as ~ 50 -fold.
